# Measurements published in PMC11822212, “High-throughput screening identifies Aurora kinase B as a critical therapeutic target for Merkel cell carcinoma” (Nature Communications, 2025).
# Counter-ions that a name gives are not always drawn.
# Assays:
# MCC13 cells (VN-MCC) = assay: qHTS cell viability (CellTiter-Glo, 72 h; primary and follow-up small molecule screen); format: cell-based, human
# MCC26 cells (VN-MCC) = assay: as above; format: cell-based, human
# UISO cells (VN-MCC) = assay: as above; format: cell-based, human
# WAGA cells (VP-MCC) = assay: as above; format: cell-based, human
# MKL-1 cells (VP-MCC) = assay: as above; format: cell-based, human
# MKL-2 cells (VP-MCC) = assay: as above; format: cell-based, human
# HACAT cells = assay: qHTS cell viability (CellTiter-Glo, 72 h; primary screen), control cell line; format: cell-based, human
# HEK293T cells = assay: as above; format: cell-based, human
# NIH-3T3 cells = assay: as above; format: cell-based, mouse
# CRL-7250 cells = assay: as above; format: cell-based
# [1] = test system: MCC cell lines (WAGA, MKL-1, MKL-2, MCC13, MCC26, UISO); assay: qHTS cell viability, all six MCC cell lines as a group (mean AUC, MCC.avg); format: cell-based, human
# [2] = test system: VP-MCC cell lines (WAGA, MKL-1, MKL-2); assay: qHTS cell viability, VP-MCC cell lines as a group (mean AUC, VP.MCC.avg); format: cell-based, human; conditions: for VP-MCC_Avg_AUC: mean AUC of VP-MCC cell lines
# [3] = test system: VN-MCC cell lines (MCC13, MCC26, UISO); assay: qHTS cell viability, VN-MCC cell lines as a group (mean AUC, VN.MCC.avg); format: cell-based, human; conditions: for VN-MCC_Avg_AUC: mean AUC of VN-MCC cell lines
# [4] = test system: control cell lines (HACAT, HEK293T, CRL-7250, NIH-3T3); assay: qHTS cell viability, control cell lines as a group (mean AUC, Control.avg); format: cell-based; conditions: mean AUC of control cell lines
# [5] = test system: six MCC cell lines and four control cell lines; assay: qHTS cell viability, all 10 cell lines screened; format: cell-based
# [6] = MIPE library, 11-point DRC, sheet S2E
# [7] = MIPE library, 11-point DRC, control cell line, sheet S2E
# [8] = MIPE library, mean AUC of six MCC cell lines, sheet S2E
# [9] = MIPE library, Control AUC minus VP-MCC AUC (therapeutic window), sheet S2E
# [10] = MIPE library, Control AUC minus VN-MCC AUC (therapeutic window), sheet S2E
# [11] = MIPE library, Control AUC minus MCC AUC (therapeutic window), sheet S2E
# [12] = NPC library, qHTS dose-response AUC, MCC13
# [13] = NPC library, qHTS dose-response AUC, UISO
# [14] = NPC library, qHTS dose-response AUC, WAGA
# [15] = NPC library, qHTS dose-response AUC, MKL1
# [16] = NPC library, qHTS dose-response AUC, MKL2
# [17] = NPC library, qHTS dose-response AUC, HACAT control
# [18] = NPC library, qHTS dose-response AUC, NIH3T3 control
# [19] = NPC library, qHTS dose-response AUC, CRL7250 control
# [20] = NPC library, mean AUC of six MCC cell lines
# [21] = NPC library, therapeutic window: Control avg AUC minus VP-MCC avg AUC
# [22] = NPC library, therapeutic window: Control avg AUC minus VN-MCC avg AUC
# [23] = NPC library, therapeutic window: Control avg AUC minus MCC avg AUC
# [24] = NPC library; qHTS dose-response AUC, MCC26
# [25] = NPC library; qHTS dose-response AUC, HEK293T control
smiles,measurement,setting,value
CC1(C)CCC(c2ccc(Cl)cc2)=C(CN2CCN(c3ccc(C(=O)N[S+](=O)([O-])c4ccc(N[C@H](CCN5CCOCC5)CSc5ccccc5)c([S+](=O)([O-])C(F)(F)F)c4)cc3)CC2)C1 [ABT-263 (Navitoclax)],MCC13_AUC,MCC13 cells (VN-MCC); [6],470.158
same,MCC26_AUC,MCC26 cells (VN-MCC); [6],476.41
same,UISO_AUC,UISO cells (VN-MCC); [6],533.391
same,WAGA_AUC,WAGA cells (VP-MCC); [6],250.192
same,MKL1_AUC,MKL-1 cells (VP-MCC); [6],289.046
same,MKL2_AUC,MKL-2 cells (VP-MCC); [6],277.677
same,HACAT_AUC,HACAT cells; [7],444.442
same,HEK293T_AUC,HEK293T cells; [7],470.677
same,NIH3T3_AUC,NIH-3T3 cells; [7],462.454
same,CRL7250_AUC,CRL-7250 cells; [7],467.721
same,MCC_Avg_AUC,[1]; [8],382.812
same,Control-VP-MCC,[2]; [9],189.019
same,VP-MCC_Avg_AUC,"[2]; MIPE library, sheet S2E",272.305
same,Control-VN-MCC,[3]; [10],-31.9962
same,VN-MCC_Avg_AUC,"[3]; MIPE library, sheet S2E",493.32
same,Control_Avg_AUC,"[4]; MIPE library, sheet S2E",461.324
same,Control-MCC,[5]; [11],78.5112
CN(C)CC[C@H](CSc1ccccc1)Nc1ccc(S(=O)(=O)NC(=O)c2ccc(N3CCN(Cc4ccccc4-c4ccc(Cl)cc4)CC3)cc2)cc1[N+](=O)[O-] [ABT-737],MCC13_AUC,MCC13 cells (VN-MCC); [6],474.092
same,MCC26_AUC,MCC26 cells (VN-MCC); [6],472.052
same,UISO_AUC,UISO cells (VN-MCC); [6],486.905
same,WAGA_AUC,WAGA cells (VP-MCC); [6],285.196
same,MKL1_AUC,MKL-1 cells (VP-MCC); [6],334.511
same,MKL2_AUC,MKL-2 cells (VP-MCC); [6],288.506
same,HACAT_AUC,HACAT cells; [7],430.037
same,HEK293T_AUC,HEK293T cells; [7],444.395
same,NIH3T3_AUC,NIH-3T3 cells; [7],431.249
same,CRL7250_AUC,CRL-7250 cells; [7],467.3
same,MCC_Avg_AUC,[1]; [8],390.211
same,Control-VP-MCC,[2]; [9],140.507
same,VP-MCC_Avg_AUC,"[2]; MIPE library, sheet S2E",302.738
same,Control-VN-MCC,[3]; [10],-34.4381
same,VN-MCC_Avg_AUC,"[3]; MIPE library, sheet S2E",477.683
same,Control_Avg_AUC,"[4]; MIPE library, sheet S2E",443.245
same,Control-MCC,[5]; [11],53.0346
COCC1(CO)C(=O)C2CCN1CC2 (stereo not shown) [APR-246],MCC13_AUC,MCC13 cells (VN-MCC); [6],460.845
same,MCC26_AUC,MCC26 cells (VN-MCC); [6],464.929
same,UISO_AUC,UISO cells (VN-MCC); [6],425.775
same,WAGA_AUC,WAGA cells (VP-MCC); [6],329.393
same,MKL1_AUC,MKL-1 cells (VP-MCC); [6],344.8
same,MKL2_AUC,MKL-2 cells (VP-MCC); [6],331.652
same,HACAT_AUC,HACAT cells; [7],475.968
same,HEK293T_AUC,HEK293T cells; [7],390.353
same,NIH3T3_AUC,NIH-3T3 cells; [7],403.185
same,CRL7250_AUC,CRL-7250 cells; [7],448.778
same,MCC_Avg_AUC,[1]; [8],392.899
same,Control-VP-MCC,[2]; [9],94.289
same,VP-MCC_Avg_AUC,"[2]; MIPE library, sheet S2E",335.282
same,Control-VN-MCC,[3]; [10],-20.9457
same,VN-MCC_Avg_AUC,"[3]; MIPE library, sheet S2E",450.517
same,Control_Avg_AUC,"[4]; MIPE library, sheet S2E",429.571
same,Control-MCC,[5]; [11],36.6717
CCN(CC)CCNC(=O)c1ccc(NC(C)=O)cc1 [Acecainide hydrochloride],MCC13_AUC,MCC13 cells (VN-MCC); [12],428.813
same,MCC13_AUC,"MCC13 cells (VN-MCC); area under the dose-response curve, MCC13 cells, AUC<450 = reduced viability",428.813
same,MCC26_AUC,"MCC26 cells (VN-MCC); NPC library, qHTS dose-response AUC, MCC26",385.871
same,MCC26_AUC,"MCC26 cells (VN-MCC); area under the dose-response curve, MCC26 cells; AUC<450 = reduced viability",385.871
same,UISO_AUC,UISO cells (VN-MCC); [13],444.571
same,UISO_AUC,"UISO cells (VN-MCC); area under the dose-response curve, UISO cells, AUC<450 = reduced viability",444.571
same,WAGA_AUC,WAGA cells (VP-MCC); [14],423.417
same,WAGA_AUC,"WAGA cells (VP-MCC); area under the dose-response curve, WAGA cells, AUC<450 = reduced viability",423.417
same,MKL1_AUC,MKL-1 cells (VP-MCC); [15],419.008
same,MKL1_AUC,MKL-1 cells (VP-MCC); {},419.008
same,MKL2_AUC,MKL-2 cells (VP-MCC); [16],429.744
same,MKL2_AUC,"MKL-2 cells (VP-MCC); area under the dose-response curve, MKL-2 cells, AUC<450 = reduced viability",429.744
same,HACAT_AUC,HACAT cells; [17],489.271
same,HACAT_AUC,"HACAT cells; area under the dose-response curve, HACAT control cells, AUC<450 = reduced viability",489.271
same,HEK293T_AUC,"HEK293T cells; NPC library, qHTS dose-response AUC, HEK293T control",458.505
same,HEK293T_AUC,"HEK293T cells; area under the dose-response curve, HEK293T control cells; AUC<450 = reduced viability",458.505
same,NIH3T3_AUC,NIH-3T3 cells; [18],480.581
same,NIH3T3_AUC,"NIH-3T3 cells; area under the dose-response curve, NIH3T3 control cells, AUC<450 = reduced viability",480.581
same,CRL7250_AUC,CRL-7250 cells; [19],485.167
same,CRL7250_AUC,"CRL-7250 cells; area under the dose-response curve, CRL7250 control cells, AUC<450 = reduced viability",485.167
same,MCC_Avg_AUC,"[1]; NPC library, mean AUC of all 6 MCC cell lines",421.904
same,MCC_Avg_AUC,[1]; [20],421.904
same,Control-VP-MCC,[2]; Control AUC minus VP-MCC AUC,54.3246
same,VP-MCC_Avg_AUC,[2]; NPC library,424.056
same,Control-VP-MCC,[2]; [21],54.3246
same,Control-VN-MCC,[3]; Control AUC minus VN-MCC AUC,58.6292
same,VN-MCC_Avg_AUC,[3]; NPC library,419.752
same,Control-VN-MCC,[3]; [22],58.6293
same,Control_Avg_AUC,[4]; NPC library,478.381
same,Control-MCC,[5]; [23],56.4769
CCCCC(CC)CNC(=N)NC(=N)NCCCCCCNC(=N)NC(=N)NCC(CC)CCCC (stereo not shown) [Alexidine dihydrochloride],MCC13_AUC,MCC13 cells (VN-MCC); [12],392.522
same,MCC26_AUC,MCC26 cells (VN-MCC); [24],401.146
same,UISO_AUC,UISO cells (VN-MCC); [13],330.63
same,WAGA_AUC,WAGA cells (VP-MCC); [14],351.758
same,MKL1_AUC,MKL-1 cells (VP-MCC); [15],329.916
same,MKL2_AUC,MKL-2 cells (VP-MCC); [16],344.79
same,HACAT_AUC,HACAT cells; [17],392.766
same,HEK293T_AUC,HEK293T cells; [25],380.139
same,NIH3T3_AUC,NIH-3T3 cells; [18],453.563
same,CRL7250_AUC,CRL-7250 cells; [19],401.378
same,MCC_Avg_AUC,[1]; [20],358.46
same,VP-MCC_Avg_AUC,[2]; NPC library,342.155
same,Control-VP-MCC,[2]; [21],64.8071
same,VN-MCC_Avg_AUC,[3]; NPC library,374.766
same,Control-VN-MCC,[3]; [22],32.1955
same,Control_Avg_AUC,[4]; NPC library,406.962
same,Control-MCC,[5]; [23],48.5013
N=C(N)NC(=O)c1nc(Cl)c(N)nc1N [Amiloride],MCC13_AUC,MCC13 cells (VN-MCC); [12],460.482
same,MCC26_AUC,MCC26 cells (VN-MCC); [24],436.049
same,UISO_AUC,UISO cells (VN-MCC); [13],438.294
same,WAGA_AUC,WAGA cells (VP-MCC); [14],426.991
same,MKL1_AUC,MKL-1 cells (VP-MCC); [15],439.734
same,MKL2_AUC,MKL-2 cells (VP-MCC); [16],417.455
same,HACAT_AUC,HACAT cells; [17],483.146
same,HEK293T_AUC,HEK293T cells; [25],497.776
same,NIH3T3_AUC,NIH-3T3 cells; [18],492.231
same,CRL7250_AUC,CRL-7250 cells; [19],484.959
same,MCC_Avg_AUC,[1]; [20],436.501
same,VP-MCC_Avg_AUC,[2]; NPC library,428.06
same,Control-VP-MCC,[2]; [21],61.468
same,VN-MCC_Avg_AUC,[3]; NPC library,444.942
same,Control-VN-MCC,[3]; [22],44.5863
same,Control_Avg_AUC,[4]; NPC library,489.528
same,Control-MCC,[5]; [23],53.0271
